The text below walks through data of US6214833A, “Pyrimidinone-1,3-oxathiolane derivatives with antiviral activity” (Zambon Group S.p.A., priority 1997, dated 2001).

One assay deals with fresh human macrophages infected by the macrophage-trophic HIV-1 PAR strain. Description: anti-HIV activity on macrophages: inhibition of viral reverse transcriptase activity in culture supernatant at peak. The following applies: Human immunodeficiency virus 1, Macrophage; fresh human macrophages infected by HIV-1 PAR; about 1 month culture at 37° C.; at peak of reverse transcriptase expression. It is filed as cell-based, HIV-1 PAR strain; human macrophages. On the procedure: (§1) The antiviral activity of the compounds of formula I, object of the present invention, was evaluated on the MT4 human lymphocytes infected by HIV-1 BRU strain and on fresh human macrophages infected by the macrophage-trophic HIV-1 PAR strain.
(§2) Both kinds of experiment were carried out following conventionally used methods for the evaluation of reverse transcriptase inhibitors and are predictive of the in vivo anti-HIV activity.
(§3) The anti-HIV activity of the compounds of formula I was evaluated on the limphocitic human cell line MT4 infected by HIV-1 strain BRU and on fresh human macrophages infected by the macrophage-trophic HIV- 1 PAR strain.
The cells, infected and treated with the compounds of formula I, were cultured at 37° C. for about 1 month. Every 3-4 days the culture supernatant was withdrawn and substituted with fresh medium containing or not the compounds of formula I. The viral reverse-transcriptase activity, determined in the culture supernatant every 3-4 days, was followed up to the end of the experiment by determining the maximum peak of the enzyme expression. In the correspondence of such a peak the anti-HIV activity was evaluated as 50% inhibition (IC50) of the enzymatic activity in the supernatant of the infected and treated cultures in comparison with the control ones.
The used methodology was described by Schmidtmayerova H. et al. on Virology (1992), 190, 124-133.
(§4) In the following table the data of anti-HIV activity on both the cell lines for some representative compounds of formula I are reported.
In the case of `Nc1ccn([C@@H]2CS[C@H](CO)O2)c(=O)n1` (relative stereo) [BCH-189, 4-amino-1-(2-hydroxymethyl-1,3-oxathiolan-5-yl)-2(1H)-pyrimidinone, reference compound], the IC50 – broadly, the point on the concentration scale where inhibition reaches its midpoint – amounted to 100 nM. Same read-out and setting: the result for `O=C(CCCCCNCCCCCCNCc1ccccc1)Nc1ccn([C@@H]2CS[C@H](CO)O2)c(=O)n1` (relative stereo) [Compound 56, (±)-1-(2-Hydroxymethyl-1,3-oxathiolan-5-yl)-4-[6-[6-phenylmethylamino)hexylamino]-hexanoylamino]-2(1H)-pyrimidinone] reads 100 nM. Same read-out and setting: the result for `O=C(CCCCCNCCCCCNCc1ccccc1)Nc1ccn([C@@H]2CS[C@H](CO)O2)c(=O)n1` (relative stereo) [Compound 57, (±)-1-(2-Hydroxymethyl-1,3-oxathiolan-5-yl)-4-[6-[5-(phenylmethylamino)pentylamino]-hexanoylamino]-2(1H)-pyrimidinone] reads 100 nM.

Another assay deals with limphocitic human cell line MT4 infected by HIV-1 strain BRU. Description: anti-HIV activity on lymphocytes (MT4 cells): inhibition of viral reverse transcriptase activity in culture supernatant. It is filed as cell-based, HIV-1 strain BRU; human MT4 cells. The following applies: Human immunodeficiency virus 1, Lymphocyte, MT4 human lymphocytes infected by HIV-1 BRU, 7-8 days culture at 37° C. The procedure: as §1, §2, §3
The cells, infected and treated with the compounds of formula I, were cultured at 37° C. for 7-8 days. Every 3-4 days the culture supernatant was withdrawn and substituted with fresh medium containing or not the compounds of formula I. The anti-HIV activity was evaluated at the end of the experiment as 50% inhibition (IC50) of the activity of the viral reverse transcriptase in the supernatant of infected cultures in comparison with the control cultures.
The used methodologies were described in the papers published by Rey M. A. et al. on Biochem. Biophys. Res. Commun. (1984), 121, 126-133 and on Virology (1991), 181, 165-171.
as §4
Consider `Nc1ccn([C@@H]2CS[C@H](CO)O2)c(=O)n1` (relative stereo) [BCH-189, 4-amino-1-(2-hydroxymethyl-1,3-oxathiolan-5-yl)-2(1H)-pyrimidinone, reference compound], for which the IC50 came out at 700 nM. Still for that read-out and setting: the result for `CC(C)(C)OC(=O)N(CCCCCC(=O)OC[C@@H]1O[C@H](n2ccc(N)nc2=O)CS1)CCCCCN(Cc1ccccc1)C(=O)OC(C)(C)C` (relative stereo) [Compound 1, (±)-4-Amino-1-[2-[6-[5-(N'-tert-butoxycarbonyl-N'-phenylmethylamino)-N-tert-butoxycarbonyl-pentylamino]-hexanoyloxymethyl]-1,3-oxathiolan-5-yl]-2(1H)-pyrimidinone] reads 1 to 5 nM.

As to `CC(C)(C)OC(=O)N(CCCCCC(=O)OC[C@@H]1O[C@H](n2ccc(N)nc2=O)CS1)Cc1ccccc1` (relative stereo) [Compound 4, (±)-4-Amino-1-[2-[6-(N-tert-butoxycarbonyl-N-phenylmethylamino)-hexanoyloxy-methyl]-1,3-oxathiolan-5-yl]-2(1H)-pyrimidinone], the half-inhibitory concentration (IC50) turned out to be 1 nM. On the same count and under the same terms, the result for `CC(C)(C)OC(=O)N(CCCCCC(=O)OC[C@@H]1O[C@H](n2ccc(N)nc2=O)CS1)Cc1cccc(C(F)(F)F)c1` (relative stereo) [Compound 6, (±)-4-Amino-1-[2-[6-[N-tert-butoxycarbonyl-N-(3trifluoromethylphenyl)methyl-amino]-hexanoyloxymethyl-]1,3-oxathiolan-5-yl]-2(1H)-pyrimidinone] reads 4 nM; that for `CC(C)(C)OC(=O)N(CCCCCC(=O)OC[C@@H]1O[C@H](n2ccc(N)nc2=O)CS1)Cc1ccccc1C(F)(F)F` (relative stereo) [Compound 7, (±)-4-Amino-1-[2-[6-[N-tert-butoxycarbonyl-N-(2-trifluoromethyl-phenyl)methyl-amino]-hexanoyloxymethyl-]-1,3-oxathiolan-5-yl]-2(1H)-pyrimidinone], 1 to 10 nM. In turn, `CC(C)(C)OC(=O)N(CCCCCCN(Cc1ccccc1C(F)(F)F)C(=O)OC(C)(C)C)CCCCCC(=O)OC[C@@H]1O[C@H](n2ccc(N)nc2=O)CS1` (relative stereo) [Compound 8, (±)-4-Amino-1-[2-[6-[6-[N'-tert-butoxycarbonyl-N'-(2-trifluoromethylphenyl)methylamino]-N-tert-butoxycarbonyl-hexylamino]-hexanoyloxymethyl]-1,3-oxathiolan-5-yl]-2(1H)-pyrimidinone] registered a 50% inhibitory concentration (IC50) of 100 nM.

The compound `CCOC(=O)N(CCCCCC(=O)OC[C@@H]1O[C@H](n2ccc(N)nc2=O)CS1)Cc1ccccc1` (relative stereo) [Compound 9, (±)-4-Amino-1-[2-[6-(N-ethoxycarbonyl-N-phenylmethylamino)-hexanoyloxymethyl]-1,3-oxathiolan-5-yl]-2(1H)-pyrimidinone] gave a half-maximal inhibitory concentration (IC50) of 1 to 50 nM.

`CC(C)(C)OC(=O)N(CC(=O)OC[C@@H]1O[C@H](n2ccc(N)nc2=O)CS1)Cc1ccccc1` (relative stereo) [Compound 10, (±)-4-Amino-1-[2-[(N-tert-butoxycarbonyl-N-phenylmethylamino)-acetyloxymethyl]-1,3-oxathiolan-5-yl]-2(1H)-pyrimidinone]: the IC50 was in the range of 10 to 100 nM. Still for that read-out and setting: the result for `Nc1ccn([C@@H]2CS[C@H](COC(=O)CCCCCNCCCCCNCc3ccccc3)O2)c(=O)n1` (relative stereo) [Compound 48, (±)-4-Amino-1-[2-[6-[5-(phenylmethylamino)pentylamino]-hexanoyloxymethyl]-1,3-oxathiolan-5-yl]-2(1H)-pyrimidinone] reads 150 nM; that for `Nc1ccn([C@@H]2CS[C@H](COC(=O)CCCCNCCCCCCNCc3ccccc3)O2)c(=O)n1` (relative stereo) [Compound 49, (±)-4-Amino-1-[2-[5-[6-(phenylmethylamino)hexylamino]-pentanoyloxymethyl]-1,3-oxathiolan-5-yl]-2(1H)-pyrimidinone], 900 nM. As to `Nc1ccn([C@@H]2CS[C@H](COC(=O)CCCCCNCc3ccccc3)O2)c(=O)n1` (relative stereo) [Compound 52, (±)-4-Amino-1-[2-[6-(phenylmethylamino)hexanoyloxymethyl]-1,3-oxathiolan-5-yl]-2(1H)-pyrimidinone], the IC50 was 100 to 1000 nM. The same measure, in the same setting: the result for `Nc1ccn([C@@H]2CS[C@H](COC(=O)CCCCCNCc3cccc(C(F)(F)F)c3)O2)c(=O)n1` (relative stereo) [Compound 53, (±)-4-Amino-1-[2-[6-[(3trifluorophenyl)methylamino]-hexanoyloxymethyl]-1,3-oxathiolan-5-yl]-2(1H)-pyrimidinone] reads 700 nM; that for `Nc1ccn([C@@H]2CS[C@H](COC(=O)CCCCCNCCCCCCNCc3ccccc3C(F)(F)F)O2)c(=O)n1` (relative stereo) [Compound 54, (±)-4-Amino-1-[2-[6-[6-[(2-trifluoromethylphenyl)methylamino]-hexylamino]-hexanoyloxymethyl]-1,3-oxathiolan-5-yl]-2(1H)-pyrimidinone], 800 nM; that for `Nc1ccn([C@@H]2CS[C@H](COC(=O)CCCCCNCc3ccccc3C(F)(F)F)O2)c(=O)n1` (relative stereo) [Compound 55, (±)-4-Amino-1-[2-[6-[(2-trifluorophenyl)methylamino]-hexanoyloxymethyl]-1,3-oxathiolan-5-yl]-2(1H)-pyrimidinone], 100 nM. Still for that read-out and setting: the result for `O=C(CCCCCNCCCCCCNCc1ccccc1)Nc1ccn([C@@H]2CS[C@H](CO)O2)c(=O)n1` (relative stereo) [Compound 56, (±)-1-(2-Hydroxymethyl-1,3-oxathiolan-5-yl)-4-[6-[6-phenylmethylamino)hexylamino]-hexanoylamino]-2(1H)-pyrimidinone] reads 130 nM; that for `O=C(CCCCCNCCCCCNCc1ccccc1)Nc1ccn([C@@H]2CS[C@H](CO)O2)c(=O)n1` (relative stereo) [Compound 57, (±)-1-(2-Hydroxymethyl-1,3-oxathiolan-5-yl)-4-[6-[5-(phenylmethylamino)pentylamino]-hexanoylamino]-2(1H)-pyrimidinone], 410 nM. Same read-out and setting: the result for `CC(C)(C)OC(=O)N(CCCCCC(=O)OC[C@H]1O[C@@H](n2ccc(N)nc2=O)CS1)CCCCCN(Cc1ccccc1)C(=O)OC(C)(C)C` [Compound 2, (2S, 5R)-4-Amino-1-[2-[6-[5-(N'-tert-butoxycarbonyl-N'-phenylmethylamino)-N-tert-butoxycarbonyl-pentylamino]-hexanoyloxymethyl]-1,3-oxathiolan-5-yl]-2(1H)-pyrimidinone] reads < 100 nM.

For another assay, the system named is HIV.
Assay: not given
The following applies: compared with zidovudine, zalcitabine, didanosine and stavudine; WO 91/17159; cited from earlier work.
Consider `Nc1ccn([C@@H]2CS[C@H](CO)O2)c(=O)n1` [lamivudine, (2R-cis)-4-amino-1-(2-hydroxymethyl-1,3-oxathiolan-5-yl)-2(1H)-pyrimidinone], for which the “antiviral potency and toxicity compared with other RT-inhibitors” value is “more potent and less toxic antiviral than zidovudine, zalcitabine, didanosine and stavudine”.
